Earlier results on one compound are cited in patent US6551555B2, “Apparatus with a chemical indicator for indicating exposure to an oxidative sterilant or disinfectant” (Ethicon, Inc., priority 1997, dated 2003).

The conditions of the series: Sigma-Aldrich catalog number 229288.

Consider `CN(C)c1ccc(C(=C2C=CC(=[N+](C)C)C=C2)c2ccc(N(C)C)cc2)cc1` [crystal violet], for which the toxicity hazards result was “toxic and may cause cancer, heritable genetic damage and irritate the eyes, respiratory system and skin”.
